Data published in paper PMC11843613, “Further Optimization of the mGlu1 PAM VU6024578/BI02982816: Discovery and Characterization of VU6033685” (ACS Chemical Neuroscience, 2025).

What was measured:
striatal DA release = experiment: Electrically evoked striatal DA release in brain slices (fast scanning cyclic voltammetry); conditions: 10 μM DHPG alone, mouse slices
Description: into the home cage. The arena is then cleaned with 70% ethanol in between animals. The day of the test the animals are habituated to the dosing room for 2 hours. The animals were administered VU6024578 (1-10 mg/kg p.o.) or vehicle (10% Tween 80) and were placed back into their homecage for 60 min. The animals were then injected with MK-801 (0.075 mg/kg 1 ml/kg s.c.) and placed back in the homecage for 30 min. The animals are then placed into the arena with two identical familiar objects for ten minutes and then placed back into the home cage. The animals are then placed back into the arena with one of the familiar objects replaced with a novel object at 120 min after the familiar object exposure. The activity of the animals are recorded and the time spent exploring each of the objects is scored by a blinded observer. Recognition index is determined by subtracting […] divided by total time spent exploring.
Brain Slice Preparation and Fast Scanning Cyclic Voltammetry: […]
Electrically-evoked dopamine overflow was monitored with carbon fiber electrodes as previously reported (Foster et al. 2014). […]

human mGlu1 = biological target: T1, human mGlu1 (Homo sapiens, UniProt Q13255); set-up: method as in PMID 39665415; conditions: previously reported compound; cited from earlier work
T1 construct: expressed in transfected cells; pcDNA5/TO)

[1] = set-up: method as in PMID 39665415; conditions: cited from earlier work
[2] = tested on: amphetamine-induced hyperlocomotion in rats; set-up: method as in PMID 39665415; conditions: cited from earlier work

T1 sequence (Q13255 19-1194): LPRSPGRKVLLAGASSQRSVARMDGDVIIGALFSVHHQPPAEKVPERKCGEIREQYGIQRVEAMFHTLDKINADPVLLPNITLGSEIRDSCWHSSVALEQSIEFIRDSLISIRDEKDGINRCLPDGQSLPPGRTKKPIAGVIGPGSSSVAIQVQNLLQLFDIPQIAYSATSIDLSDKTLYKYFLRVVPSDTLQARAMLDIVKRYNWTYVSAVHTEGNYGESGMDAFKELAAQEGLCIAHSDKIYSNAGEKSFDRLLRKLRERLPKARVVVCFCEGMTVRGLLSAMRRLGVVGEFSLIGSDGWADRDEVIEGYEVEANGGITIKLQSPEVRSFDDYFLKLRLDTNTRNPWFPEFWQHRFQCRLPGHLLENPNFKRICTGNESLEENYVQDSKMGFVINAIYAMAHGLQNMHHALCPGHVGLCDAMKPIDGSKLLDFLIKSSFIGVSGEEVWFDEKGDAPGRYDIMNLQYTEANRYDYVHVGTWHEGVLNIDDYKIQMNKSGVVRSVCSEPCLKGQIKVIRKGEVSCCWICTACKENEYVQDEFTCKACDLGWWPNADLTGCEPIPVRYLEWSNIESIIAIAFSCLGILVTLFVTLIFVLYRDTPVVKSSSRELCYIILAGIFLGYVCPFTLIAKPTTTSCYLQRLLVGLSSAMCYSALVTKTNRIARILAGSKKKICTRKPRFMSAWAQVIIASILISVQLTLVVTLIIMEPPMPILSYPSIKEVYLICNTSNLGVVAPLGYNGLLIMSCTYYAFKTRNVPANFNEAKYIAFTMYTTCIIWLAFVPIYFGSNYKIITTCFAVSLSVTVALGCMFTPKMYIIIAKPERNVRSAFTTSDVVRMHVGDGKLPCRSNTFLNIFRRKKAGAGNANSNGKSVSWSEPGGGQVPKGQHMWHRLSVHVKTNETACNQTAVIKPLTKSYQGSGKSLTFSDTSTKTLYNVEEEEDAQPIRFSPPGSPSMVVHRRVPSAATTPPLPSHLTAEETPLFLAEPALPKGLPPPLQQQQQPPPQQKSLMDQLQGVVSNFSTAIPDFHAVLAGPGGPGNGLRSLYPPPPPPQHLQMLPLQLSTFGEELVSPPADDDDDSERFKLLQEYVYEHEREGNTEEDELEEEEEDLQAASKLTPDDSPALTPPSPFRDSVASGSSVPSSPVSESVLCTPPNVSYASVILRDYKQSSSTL

Structure (SMILES) | effect on striatal DA release, agonist alone (striatal DA release) | mGlu1 Glumax of 3 (human mGlu1) | species with adverse events [1] | unbound brain level as fold of rat mGlu1 EC50 at which AHL was reversed [2]
N[C@H](C(=O)O)c1cc(O)cc(O)c1 [DHPG, (S)-3,5-dihydroxyphenylglycine, reference compound] | did not produce a significant inhibition of striatal DA release |  |  | 
Cn1nc(-c2ccnn2C)cc1CNC(=O)c1cc(-c2ccco2)ccc1Cl [compound 3] |  | 83% | only exhibited AEs in dogs | ~0.7 fold
